Assay results from ChEMBL document CHEMBL4024763, “Discovery and Optimization of Pyrrolopyrimidine Inhibitors of Interleukin-1 Receptor Associated Kinase 4 (IRAK4) for the Treatment of Mutant MYD88L265P Diffuse Large B-Cell Lymphoma” (J Med Chem, 2017).
Converted amounts (≈) assume the structure as drawn.

test: Aqueous solubility of the compound at pH 7.4 at 25 degC; format: physicochemical; settings: buffer

solubility [µM]	Structure (SMILES)
5 (≈ 2.01 µg/mL)	c1nc(S[C@H]2CC[C@H](N3CCOCC3)CC2)c2c(C3CCOCC3)c[nH]c2n1

test: Drug excretion in bile duct cannulated rat bile at 2 mg/kg, iv; format: ADME, organism-based; settings: read-out: Drug excretion

dose excreted [%]	Structure (SMILES)
2	c1nc(N[C@H]2CC[C@H](N3CCOCC3)CC2)c2c(C3CCOCC3)c[nH]c2n1

test: Lipophilicity, log D of the compound at pH 7.4 by shake flask method; format: physicochemical; settings: buffer

logD	Structure (SMILES)
0.3	CN(C)[C@H]1CC[C@H](Nc2ncnc3[nH]cc(C4CCCO4)c23)CC1 (stereo in doubt; 18b)

same assay, conditions: buffer, read-out: logD

logD	Structure (SMILES)
0.3	CN(C)[C@H]1CC[C@H](Nc2ncnc3[nH]cc(C4CCCOC4)c23)CC1 (some centres not stated)
1.5	CN(C)[C@H]1CC[C@H](Nc2ncnc3[nH]cc(C(F)(F)F)c23)CC1
0.6	CN(C)[C@H]1CC[C@H](N(C)c2ncnc3[nH]cc(C4CCOCC4)c23)CC1
0.6	CCc1c[nH]c2ncnc(N[C@H]3CC[C@H](N(C)C)CC3)c12
1.5	CN(C)[C@H]1CC[C@H](Nc2ncnc3[nH]cc(C4CCC4)c23)CC1
0.5	CN(C)[C@H]1CC[C@H](Nc2ncnc3[nH]c4c(c23)CCC4)CC1
0.9	CN(C)[C@H]1CC[C@H](Nc2ncnc3[nH]cc(C4CC4)c23)CC1
-0.6	CN(C)[C@H]1CC[C@H](Nc2ncnc3[nH]ccc23)CC1
1.2	CN(C)[C@H]1CC[C@H](Oc2ncnc3[nH]cc(C4CCOCC4)c23)CC1
1.7	CN(C)[C@H]1CC[C@H](Nc2ncnc3[nH]cc(C4CCCC4)c23)CC1
0.4	CN(C)[C@H]1CC[C@H](Nc2ncnc3[nH]cc(C4CCCO4)c23)CC1 (stereo in doubt; 18a)
0.1	CN(C)[C@H]1CC[C@H](Nc2ncnc3[nH]cc(C4CCOC4)c23)CC1 (stereo in doubt; 19a)

Further lines, the compound ahead of its results:

Structure (SMILES)	logD
CN(C)[C@H]1CC[C@H](Nc2ncnc3sc4c(c23)CCC4)CC1	1.2
c1nc(O[C@H]2CC[C@H](N3CCOCC3)CC2)c2c(C3CCOCC3)c[nH]c2n1	2.4
Cc1sc2ncnc(N[C@H]3CC[C@H](N(C)C)CC3)c2c1C	0.7
N#Cc1cnc2[nH]cc(C3CCOCC3)c2c1N[C@H]1CC[C@H](N2CCOCC2)CC1	2.3
Cc1csc2ncnc(N[C@H]3CC[C@H](N(C)C)CC3)c12	0.3
Cc1cc2c(N[C@H]3CC[C@H](N(C)C)CC3)ncnc2[nH]1	-0.2
c1nc(S[C@H]2CC[C@H](N3CCOCC3)CC2)c2c(C3CCOCC3)c[nH]c2n1	3
Cc1cc2c(N[C@H]3CC[C@H](N(C)C)CC3)ncnc2s1	0.6
CN(C)[C@H]1CC[C@H](Nc2ncnc3sccc23)CC1	0.1
c1cc(N[C@H]2CC[C@H](N3CCOCC3)CC2)c2c(C3CCOCC3)c[nH]c2n1	1.7
Cc1[nH]c2ncnc(N[C@H]3CC[C@H](N(C)C)CC3)c2c1C	0.6

test: Drug excretion in bile duct cannulated rat urine at 2 mg/kg, iv; format: ADME, organism-based; settings: read-out: Drug excretion

dose excreted [%]	Structure (SMILES)
27	c1nc(N[C@H]2CC[C@H](N3CCOCC3)CC2)c2c(C3CCOCC3)c[nH]c2n1
